Patent US9040591B2, “Methods and compositions comprising at least one α3 βA4 nAChR antagonist or pharmaceutically acceptable salt thereof” (AGI Therapeutics Public Limited Company, priority 2003, dated 2015)
Structures can show the parent of a compound that is named as a salt.

Experiments:
[1] = 2.5 mg dose, conventional formulation, adults; cited from earlier work
[2] = Pharmacokinetics of oral conventional formulation in adults (Young et al. 2001); assay type: in vivo, human adults; settings: expected
Protocol: Bear et al., Am. J. Physiol., 186, 180-86 (1956). […] Young et al., Clinical Therapeutics, 23(4) (2001). […] The typical dose used for treating hypertensive subjects is about 25 mg/day, and is dosed using conventional formulations.

[3] = Clinical study of transdermal mecamylamine patches in smokers, treatment emergent effects; assay type: in vivo, human; settings: for Side effect: Constipation: transdermal patches of Example 1, smokers but otherwise healthy subjects
Description: The mecamylamine transdermal formulation is a transdermal patch that contains mecamylamine blended with an acrylic adhesive that is coated onto a printed backing to produce transdermal patches.

[4] = Second clinical trial, treatment emergent effects associated with ganglion blocking activity; assay type: in vivo, human
Protocol: In a second clinical trial, the frequency of treatment emergent effects typically associated with “ganglion blocking” activity was assessed. The following treatment emergent effects were found: […]

[5] = test system: patients with dominant chronic diarrhea symptoms (functional diarrhea); assay: Example 3 randomized, double-blind, placebo-controlled forced dose escalation study in Functional Diarrhea; assay type: in vivo, human; settings: for number of patients showing improvement in stool consistency / percent of patients showing improvement in stool consistency: modified per-protocol population
Description: Eight-two patients (both male and female) meeting ROME II criteria (modified) for Functional Diarrhea were randomized in the study. […] For example, the following table summarizes the number of patients showing “improvement” in stool consistency. Prior to treatment, patients were to be experiencing >50% of the time, a mushy/watery stool consistency in at least 75% of their daily stools. “Improvement” represents a patient experiencing <50% of the time, a mushy/watery stool consistency in at least 75% of daily stools.

[6] = transdermal patches of Example 1, smokers

CNC1(C)C2CCC(C2)C1(C)C (stereo not drawn) [mecamylamine hydrochloride, N-2,3,3-tetramethylbicyclo[2.2.1]heptan-2-amine hydrochloride]
maximum plasma concentration (Cmax) [1]: about 7.89 ng/mL

CNC1(C)C2CCC(C2)C1(C)C (stereo not drawn) [Mecamylamine, N-2,3,3-tetramethylbicyclo-[2.2.1]heptan-2-amine]
24 hour plasma concentration level as % of peak plasma concentration [2]: less than 25% | time for which about 50% of the peak plasma concentration is maintained [2]: about 14 hours | Side effect: Application [3, 6]: 25% | Side effect: Asthenia [3, 6]: 14% | Side effect: Dizziness [3, 6]: 17% | Side effect: Headache [3, 6]: 36% | Side effect: Insomnia [3, 6]: 14% | Side effect: Nausea [3, 6]: 15% | Side effect: Rash [3, 6]: 13% | Side effect: Constipation [3]: 42% | Side effect: Constipation ([3]; listed as mecamylamine): 42% | Side effect: Cardiac Disorder [4]: 1.3% | Side effect: Constipation [4]: 28.9% | Side effect: Dizziness [4]: 4.0% | Side effect: Dry Mouth [4]: 3.4% | Side effect: Eye [4]: 0.7% | Side effect: Gastrointestinal [4]: 4.36% | Side effect: Nausea [4]: 5.4% | Side effect: Urinary Retention [4]: 0.7% | overall incidence of adverse events versus placebo ([5]; 12-week study): similar | changes in blood pressure ([5]; 12-week study, FIGS. 1 and 2): no clinically significant changes in blood pressure | number of patients showing improvement in stool consistency ([5]; Entire Study): 8/18 | percent of patients showing improvement in stool consistency ([5]; Entire Study): 44.4% | number of patients showing improvement in stool consistency ([5]; Week 4 (2 mg/day)): 8/18 | percent of patients showing improvement in stool consistency ([5]; Week 4 (2 mg/day)): 44.4% | number of patients showing improvement in stool consistency ([5]; Week 8 (4 mg/day)): 8/18 | percent of patients showing improvement in stool consistency ([5]; Week 8 (4 mg/day)): 44.4% | number of patients showing improvement in stool consistency ([5]; Week 12 (6 mg/day)): 9/18 | percent of patients showing improvement in stool consistency ([5]; Week 12 (6 mg/day)): 50.0% | primary and secondary endpoints versus placebo ([5]; intent-to-treat analysis, entire 12 weeks of dose-escalation therapy): failed to show any statistically significant difference from placebo | stool consistency versus placebo ([5]; intent-to-treat analysis, week 4 (2 mg/day)): improvement in stool consistency | stool consistency versus placebo ([5]; modified per-protocol population (n=35), entire dose-escalation and each dose treatment phase): significant improvements in stool consistency
